Laboratory results published in patent US10251915B2, “Co-encapsulation of live cells with oxygen-generating particles” (Wake Forest University Health Sciences, priority 2011, dated 2019).
Entries after “also recorded” stand apart in the source; their conditions may differ.

How the values were obtained:
[1] = Oxygen release (dissolved oxygen) from POGS encapsulated in alginate microbeads in a hypoxic chamber; assay type: physicochemical; settings: for duration of oxygen release from alginate microbeads containing MgO2 in the presence of antioxidant: 2.5% MPO in alginate microcapsules, 100 U/ml catalase, 1.5 mM Trolox, compared to MPO alone
Source text: FIG. 1: Comparison of CaO2 and MgO2 release over six days, dissolved oxygen readings are an average of 5 sample groups with 1500 microcapsules each; measurements were taken in a hypoxic chamber.
FIG. 2: Effect of antioxidants on oxygen release from alginate microcapsules with 2.5% MPO.
Comparison of CPO and MPO: We first examined the oxygen release profiles of two POGS, CPO and MPO encapsulated in alginate microbeads in the absence or presence of catalase (100 U/ml), and the antioxidant, Trolox (1.5 mM). Sieves were used to select both MPO and CPO particles equal to and less than 25 μm in diameter. Then 0.5% by weight solution of 1.5% LVM and either CPO or MPO were prepared respectively. These solutions were then extruded through an encapsulating device forming microspheres measuring […] in diameter, which were allowed to crosslink for 15 minutes in 1.1% CaCl2 solution. After cross-linking, the microbeads were rinsed with HBSS and placed into 50 ml conical tubes (BD, USA) containing 20 mL ultra pure water with 10 mM HEPES (pH=7.4). Tubes were placed in a 1% oxygen environment in a hypoxic glovebox system (Biospherix, USA) with the caps of the tubes removed allowing for gas exchange. Dissolved oxygen readings were taken every 24 hours for 6 days using an Orion 4-star DO Probe (Thermo Science).
Oxygen release from MPO Alginate Capsules: On the basis of a better release profile, we then selected MgO2 for further studies. First the release profiles of various concentrations of MPO were measured. Using the same technique as described above 0%, 0.25%, 0.5%, 1%, 1.5%, 2.0%, 2.5%, 5%, 10%, 20%, 30%, and 40% (by weight) solutions of MPO in 1.5% UP LVM were prepared, with particles larger than 25 μM sieved out of the solution prior to encapsulation. […] Dissolved oxygen levels were measured for up to 250 hours. Using the same methodology we then assessed the effect of the antioxidants, Catalase and Trolox, on oxygen release. […] Capsules were prepared and dissolved oxygen levels were measured as described earlier. […] Dissolved oxygen levels were measured for up to 250 hours.

[2] = tested on: Isolated human islets; assay: MTS viability assay of islets co-cultured with MPO and antioxidants; assay type: cell-based
Description: FIG. 4: Viability of islets co-cultured with MPO and antioxidants. Isolated human islets were co-cultured with 10 mM MPO for 2 days in normal culture conditions with the following antioxidants: 100 Units/mL Catalase, 1.5 mM Trolox and 30 μM MnTE-2-Pyp. After the two day culture period islet viabilty was determined with an MTS assay. Error bars represent standard deviation, n=5.
Previous studies have shown that the isolation process predisposes islets to subsequent damage and functional impairment and that an SOD mimicking catalytic antioxidant, MnTE-2-PyP (also called AEOL10113), developed by Drs.

[3] = tested on: islet cell functional mass; settings: used in the isolation or culture medium; cited from earlier work

With `Cc1c(C)c2c(c(C)c1O)CCC(C)(C(=O)O)O2` (stereo not shown) [Trolox, 6-hydroxy-2,5,7,8-tetramethylchroman-2-carboxylic acid] the “duration of oxygen release from alginate microbeads containing MgO2 in the presence of antioxidant” value [1] was “this effect is not observed; also recorded: no significant change”.

In the case of `CC[n+]1ccccc1-c1c2nc(c(-c3cccc[n+]3CC)c3ccc([n-]3)c(-c3cccc[n+]3CC)c3nc(c(-c4cccc[n+]4CC)c4ccc1[n-]4)C=C3)C=C2.[Mn+3]` [MnTE-2-PyP, Mn (III) tetrakis (N-ethylpyridinium-2-yl) porphyrin], the “effect on viability of islets co-cultured with MPO” value ([2]; 10 mM MPO, 30 μM MnTE-2-Pyp, 2 days normal culture) is listed as “counteracts the diminishing effect of MPO on islet viability”, the “viability of isolated human islets” value ([2]; added to islets in normal culture, 30 μM MnTE-2-Pyp, 2 days, n=5) is listed as “significantly (p<0.05) enhances the viability” and the “preservation of islet cell functional mass” value [3] is listed as “beneficial in preserving islet cell functional mass”.

For `[Mg+2].[O-][O-]` [MPO, Magnesium Peroxide], the release of oxygen ([1]; 0.5% by weight CPO or MPO in 1.5% LVM alginate microbeads, 1% oxygen environment, readings every 24 hours for 6 days) was “higher release of oxygen for up to five days compared to CPO” and the “effect of MPO on islet viability” value ([2]; 10 mM MPO, 2 days normal culture) was “diminishing effect”.

B1: catalase: Catalase (from bovine liver), peroxide decomposition catalyst (protein, UniProt P00432 2-527, looked up)
Catalase: ADNRDPASDQMKHWKEQRAAQKPDVLTTGGGNPVGDKLNSLTVGPRGPLLVQDVVFTDEMAHFDRERIPERVVHAKGAGAFGYFEVTHDITRYSKAKVFEHIGKRTPIAVRFSTVAGESGSADTVRDPRGFAVKFYTEDGNWDLVGNNTPIFFIRDALLFPSFIHSQKRNPQTHLKDPDMVWDFWSLRPESLHQVSFLFSDRGIPDGHRHMNGYGSHTFKLVNANGEAVYCKFHYKTDQGIKNLSVEDAARLAHEDPDYGLRDLFNAIATGNYPSWTLYIQVMTFSEAEIFPFNPFDLTKVWPHGDYPLIPVGKLVLNRNPVNYFAEVEQLAFDPSNMPPGIEPSPDKMLQGRLFAYPDTHRHRLGPNYLQIPVNCPYRARVANYQRDGPMCMMDNQGGAPNYYPNSFSAPEHQPSALEHRTHFSGDVQRFNSANDDNVTQVRTFYLKVLNEEQRKRLCENIAGHLKDAQLFIQKKAVKNFSDVHPEYGSRIQALLDKYNEEKPKNAVHTYVQHGSHLSAREKANL
For B1, the “duration of oxygen release from alginate microbeads containing MgO2 in the presence of antioxidant” value [1] was “significantly shortened”.
